According to ChEMBL document CHEMBL1201862, “PubChem BioAssay data set” (2004):
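Following 48 hours of exposure in 96-well plates, responses at five concentrations were used to interpolate endpoints linearly. Here, GI50 denotes the concentration required for 50% inhibition of growth.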 Calls of active or inactive are those of the source. Cut-off read from the data, not from the text of the source: active = GI50 up to about 1.1 µM and inactive = higher.

Columns and labels:
Assay in all cases: NCI tumour cell line growth inhibition, 48 h
RPMI-8226 = tested on: RPMI-8226
Malme-3M = tested on: Malme-3M
NCI-H522 = tested on: NCI-H522
SK-OV-3 = tested on: SK-OV-3
OVCAR-4 = tested on: OVCAR-4
KM12 = tested on: KM12
U-251 = tested on: U-251
EKVX = tested on: EKVX
RXF 393 = tested on: RXF 393
SK-MEL-5 = tested on: SK-MEL-5
HCT-15 = tested on: HCT-15
COLO 205 = tested on: COLO 205
HCC 2998 = tested on: HCC 2998
UACC-62 = tested on: UACC-62
UO-31 = tested on: UO-31
SF-268 = tested on: SF-268
HOP-62 = tested on: HOP-62
OVCAR-5 = tested on: OVCAR-5

SMILES	GI50 (RPMI-8226)	GI50 (Malme-3M)	GI50 (NCI-H522)	GI50 (SK-OV-3)	GI50 (OVCAR-4)	GI50 (KM12)	GI50 (U-251)	GI50 (EKVX)	GI50 (RXF 393)	GI50 (SK-MEL-5)	GI50 (HCT-15) [µM]	GI50 (COLO 205)	GI50 (HCC 2998)	GI50 (UACC-62)	GI50 (UO-31)	GI50 (SF-268)	GI50 (HOP-62)	GI50 (OVCAR-5)
O=C(CSCC(=O)N/N=C\c1ccc(O)c(O)c1O)N/N=C\c1ccc(O)c(O)c1O	2.3 µM (inactive)	22.6 µM (inactive)	19.1 µM (inactive)	31.6 µM (inactive)	2.48 µM (inactive)	18.3 µM (inactive)	4.84 µM (inactive)	21.3 µM (inactive)	34.9 µM (inactive)	18.5 µM (inactive)	13.4	23.3 µM (inactive)	14.7 µM (inactive)	15.6 µM (inactive)	13.7 µM (inactive)	29.5 µM (inactive)		
O=C(/N=C1\SCCN1C(=O)C(C(F)(F)F)C(F)(F)F)C(C(F)(F)F)C(F)(F)F	> 100 µM (inactive)	> 100 µM (inactive)	> 100 µM (inactive)	> 100 µM (inactive)	> 100 µM (inactive)		> 100 µM (inactive)	> 100 µM (inactive)	> 100 µM (inactive)	> 100 µM (inactive)	> 100	> 100 µM (inactive)	> 100 µM (inactive)		> 100 µM (inactive)		> 100 µM (inactive)	> 100 µM (inactive)
Cc1ccc(/C=C2\CN(C)CC3C2=NN(c2ccccc2)C3c2ccc(C)cc2)cc1 (centres undefined)		36.6 µM (inactive)	> 100 µM (inactive)	63.8 µM (inactive)	> 100 µM (inactive)	> 100 µM (inactive)	33.3 µM (inactive)	76.7 µM (inactive)	34.4 µM (inactive)	> 100 µM (inactive)	> 100	> 100 µM (inactive)	> 100 µM (inactive)	> 100 µM (inactive)	> 100 µM (inactive)	> 100 µM (inactive)	> 100 µM (inactive)	> 10 µM (inactive)
C#CC(=O)OCC#CCOC(=O)C#C	15.1 µM (inactive)	19.1 µM (inactive)	3.23 µM (inactive)	> 100 µM (inactive)		19.3 µM (inactive)	17.5 µM (inactive)	14.2 µM (inactive)	19.1 µM (inactive)	72.9 µM (inactive)	18.7	17.9 µM (inactive)	19.6 µM (inactive)	22.7 µM (inactive)	9.14 µM (inactive)	> 100 µM (inactive)	21.6 µM (inactive)	
CCCCOCOc1ccccc1P1(=O)COc2ccccc2OC1	87.9 µM (inactive)	> 100 µM (inactive)		> 100 µM (inactive)	42.2 µM (inactive)	> 100 µM (inactive)	> 100 µM (inactive)	> 100 µM (inactive)	37.8 µM (inactive)	> 100 µM (inactive)	87.1	63 µM (inactive)	> 100 µM (inactive)	66.2 µM (inactive)	38.7 µM (inactive)	> 100 µM (inactive)	> 100 µM (inactive)	> 100 µM (inactive)
CCSc1[nH]c(Nc2nc(-c3ccccc3)n(-c3ccccc3)n2)c(C(N)=O)c1C(N)=O	> 10 µM (inactive)	> 10 µM (inactive)		> 10 µM (inactive)	5.28 µM (inactive)	> 10 µM (inactive)		> 10 µM (inactive)	6.5 µM (inactive)	> 10 µM (inactive)	> 10	> 10 µM (inactive)	> 10 µM (inactive)	> 10 µM (inactive)		> 10 µM (inactive)	> 10 µM (inactive)	
CC(=O)OCC1OC(SC2=N/C(=C\c3cc4c(=O)c5ccccc5sc4s3)C(=O)N2c2ccccc2)C(OC(C)=O)C(OC(C)=O)C1OC(C)=O (centres undefined)	50.9 µM (inactive)	> 100 µM (inactive)	> 100 µM (inactive)		74.3 µM (inactive)	> 100 µM (inactive)	23.9 µM (inactive)	65 µM (inactive)	81.5 µM (inactive)	> 100 µM (inactive)	> 100	> 100 µM (inactive)	> 100 µM (inactive)	> 100 µM (inactive)	> 100 µM (inactive)	> 100 µM (inactive)	> 100 µM (inactive)	62.4 µM (inactive)
c1ccc2/c3[nH]/c(c2c1)=N\c1ccc(cc1)-c1nc2ccc(cc2o1)/N=c1/[nH]/c(c2ccccc12)=N/c1ccc2nc(oc2c1)-c1ccc(cc1)\N=3	18.9 µM (inactive)		43.8 µM (inactive)	72.8 µM (inactive)		35.1 µM (inactive)	20.1 µM (inactive)	45.6 µM (inactive)	43.2 µM (inactive)	12.4 µM (inactive)	3.1	11.6 µM (inactive)	17.1 µM (inactive)	51.4 µM (inactive)	15.9 µM (inactive)	15.3 µM (inactive)	62.4 µM (inactive)	> 100 µM (inactive)
COCOc1cc(OC)ccc1C/C=N/O		> 100 µM (inactive)	> 100 µM (inactive)	> 100 µM (inactive)	> 100 µM (inactive)	> 100 µM (inactive)	> 100 µM (inactive)	> 100 µM (inactive)	> 100 µM (inactive)	> 100 µM (inactive)	> 100	> 100 µM (inactive)	> 100 µM (inactive)	> 100 µM (inactive)	> 100 µM (inactive)	> 100 µM (inactive)	> 100 µM (inactive)	> 100 µM (inactive)
Cc1nnc(CC#N)n1NC(=O)CC#N		> 100 µM (inactive)	> 100 µM (inactive)	> 100 µM (inactive)		> 100 µM (inactive)	> 100 µM (inactive)	> 100 µM (inactive)	> 100 µM (inactive)	> 100 µM (inactive)	> 100	> 100 µM (inactive)	> 100 µM (inactive)	> 100 µM (inactive)	> 100 µM (inactive)	> 100 µM (inactive)	> 100 µM (inactive)	> 100 µM (inactive)
CCOC(=O)c1nc2ccc(C(F)(F)F)cc2nc1Nc1ccc(OC)cc1	> 100 µM (inactive)	> 100 µM (inactive)	36.5 µM (inactive)		18.6 µM (inactive)	> 100 µM (inactive)	27.5 µM (inactive)	98.9 µM (inactive)	22.1 µM (inactive)	54.7 µM (inactive)	> 100	> 100 µM (inactive)	> 100 µM (inactive)	55.7 µM (inactive)	> 100 µM (inactive)	46.2 µM (inactive)	24.3 µM (inactive)	> 100 µM (inactive)
C[N+](C)(C)C1(C(=O)[O-])CC1	> 100 µM (inactive)	> 100 µM (inactive)	> 100 µM (inactive)		> 100 µM (inactive)		> 100 µM (inactive)	> 100 µM (inactive)	> 100 µM (inactive)	> 100 µM (inactive)	> 100		> 100 µM (inactive)			> 100 µM (inactive)	> 100 µM (inactive)	> 100 µM (inactive)
CCc1c(O)nc(Nc2nc3ccccc3[nH]2)[nH]c1=O		> 100 µM (inactive)	> 100 µM (inactive)	> 100 µM (inactive)	> 100 µM (inactive)		> 100 µM (inactive)		> 100 µM (inactive)	> 100 µM (inactive)	> 100	> 100 µM (inactive)	> 100 µM (inactive)	> 100 µM (inactive)	> 100 µM (inactive)	> 100 µM (inactive)	> 100 µM (inactive)	> 100 µM (inactive)
CN(C)c1nc(N)nc(CCl)n1	46 µM (inactive)		10.9 µM (inactive)	56.2 µM (inactive)	19.6 µM (inactive)	28.6 µM (inactive)	35.2 µM (inactive)	18.3 µM (inactive)	26.5 µM (inactive)	29.5 µM (inactive)	29.4	29.2 µM (inactive)	45.6 µM (inactive)	18.9 µM (inactive)	12.4 µM (inactive)	27.2 µM (inactive)	17.5 µM (inactive)	65.9 µM (inactive)
O=C(COc1ccc(OCC(=O)N2C(=O)CN(c3ccc(Cl)cc3)C2=S)cc1)N1C(=O)CN(c2ccc(Cl)cc2)C1=S	21.2 µM (inactive)	41.2 µM (inactive)	26.5 µM (inactive)	26.9 µM (inactive)	25.9 µM (inactive)	18.9 µM (inactive)	24 µM (inactive)	6.62 µM (inactive)	22.8 µM (inactive)	16.2 µM (inactive)	29.9	25.6 µM (inactive)	21.7 µM (inactive)	16.5 µM (inactive)	29 µM (inactive)	27.2 µM (inactive)		36.1 µM (inactive)
O=C(O)c1ccc(CI)cc1	20.8 µM (inactive)	10.6 µM (inactive)	3.9 µM (inactive)	25.4 µM (inactive)	14.3 µM (inactive)		7.85 µM (inactive)	19.5 µM (inactive)	17.7 µM (inactive)	17 µM (inactive)	16	15.4 µM (inactive)	18 µM (inactive)	10.8 µM (inactive)	18 µM (inactive)	15.4 µM (inactive)	20.3 µM (inactive)	18.7 µM (inactive)
CCC(=O)n1c(=O)n(-c2ccc([N+](=O)[O-])cc2)c(=O)n1C(=O)CC	> 100 µM (inactive)		> 100 µM (inactive)	> 100 µM (inactive)	> 100 µM (inactive)	> 100 µM (inactive)	> 100 µM (inactive)	> 100 µM (inactive)	> 100 µM (inactive)	> 100 µM (inactive)	> 100	> 100 µM (inactive)	> 100 µM (inactive)	> 100 µM (inactive)	> 100 µM (inactive)	> 100 µM (inactive)	> 100 µM (inactive)	> 100 µM (inactive)
